Results on 22 molecules are retold here after patent US11155557B2, “Pyrazolopyrimidine compounds and methods of use thereof” (Genentech, Inc., priority 2016, dated 2021).

Read-outs that look alike come from different tables or passages of the source.

For assay [1], the target named is isolated recombinant JAK1 kinase domain (Homo sapiens (Human), UniProt P23458). Description: JAK1 enzyme assay (Caliper LabChip, Ki). It is filed as biochemical. As to the method: The activity of the isolated recombinant JAK1 and JAK2 kinase domain was measured by monitoring phosphorylation of a peptide derived from JAK3 ([…] fluorescently labeled on the N-terminus with 5-carboxyfluorescein) using the Caliper LabChip R technology (Caliper Life Sciences, Hopkinton, Mass.).

The subject of assay [2] is JAK1-dependent STAT6 phosphorylation in BEAS-2B human bronchial epithelial cells. Description: JAK1 pathway assay: IL-13 stimulated STAT6 phosphorylation in BEAS-2B cells. The assay is classed as cell-based. The settings on record: BEAS-2B cells, IL-13 stimulation, read-out: IL-13 p-STAT6 BEAS-2B IC50. Put shortly: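 BEAS-2B bronchial epithelial cells plated one day before, run in complete growth medium. Phospho-STAT6 in lysates measured by MesoScale Discovery; EC50 reported.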

The target of assay [3] is isolated recombinant JAK2 kinase domain (Homo sapiens (Human), UniProt O60674). Description: JAK2 enzyme assay (Caliper LabChip, Ki).
Chain of isolated recombinant JAK2 kinase domain (O60674 849-1124): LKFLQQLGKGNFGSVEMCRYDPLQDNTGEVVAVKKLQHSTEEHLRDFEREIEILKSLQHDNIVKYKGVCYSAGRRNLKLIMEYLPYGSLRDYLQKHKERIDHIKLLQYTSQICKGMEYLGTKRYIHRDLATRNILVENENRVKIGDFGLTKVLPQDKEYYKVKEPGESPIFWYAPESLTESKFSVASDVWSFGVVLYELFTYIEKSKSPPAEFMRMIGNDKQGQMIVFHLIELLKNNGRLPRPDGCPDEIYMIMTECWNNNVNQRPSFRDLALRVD
Procedure: JAK Enzyme Assays were Carried Out as Follows:
The activity of the isolated recombinant JAK1 and JAK2 kinase domain was measured by monitoring phosphorylation of a peptide derived from JAK3 ([sequence] fluorescently labeled on the N-terminus with 5-carboxyfluorescein) using the Caliper LabChip R technology (Caliper Life Sciences, Hopkinton, Mass.). […] After termination of the kinase reaction, the proportion of phosphorylated product was determined as a fraction of total peptide substrate using the Caliper LabChip R 3000 according to the manufacturer's specifications.

Chain of isolated recombinant JAK1 kinase domain (P23458 875-1153): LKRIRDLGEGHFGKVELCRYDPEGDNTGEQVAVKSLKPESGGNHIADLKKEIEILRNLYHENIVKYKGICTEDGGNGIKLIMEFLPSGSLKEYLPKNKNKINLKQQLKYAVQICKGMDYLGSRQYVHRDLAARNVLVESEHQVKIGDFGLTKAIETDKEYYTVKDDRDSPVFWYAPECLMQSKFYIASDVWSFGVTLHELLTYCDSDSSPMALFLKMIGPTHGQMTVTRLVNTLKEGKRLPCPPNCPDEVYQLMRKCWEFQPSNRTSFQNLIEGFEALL

Turning to `O=C(Nc1cn(CCN2CCOCC2)nc1-c1cc2ccccc2cc1OC(F)F)c1cnn2cccnc12` [Example 85, N-[3-[3-(difluoromethoxy)-2-naphthyl]-1-(2-morpholinoethyl)pyrazol-4-yl]pyrazolo[1,5-a]pyrimidine-3-carboxamide], the values for the Ki in assay [1] and in assay [3] (read-out: JAK2 Ki) were 1.32 nM and 1.69 nM, respectively. The IC50 in assay [2] (Homo sapiens, BEAS-2B) came to 34 nM.

On to `CN1CCC(Cn2cc(NC(=O)c3cnn4cccnc34)c(-c3cc4ccccc4cc3OC(F)F)n2)CC1` [Example 86, N-[3-[3-(difluoromethoxy)-2-naphthyl]-1-[(1-methyl-4-piperidyl)methyl]pyrazol-4-yl]pyrazolo[1,5-a]pyrimidine-3-carboxamide], for which the inhibition constant (Ki) turned out to be 1.53 nM in assay [1] and 1.02 nM in assay [3] (read-out: JAK2 Ki). Besides, the IC50 in assay [2] (Homo sapiens, BEAS-2B) amounted to 31 nM.

With `CCn1cc(NC(=O)c2cnn3cccnc23)c(-c2cc3ccccc3cc2OC(F)F)n1` [Example 87, N-[3-[3-(difluoromethoxy)-2-naphthyl]-1-ethyl-pyrazol-4-yl]pyrazolo[1,5-a]pyrimidine-3-carboxamide], the Ki turned out to be 0.62 nM in assay [1] and 0.42 nM in assay [3] (read-out: JAK2 Ki). Also, the IC50 in assay [2] (Homo sapiens, BEAS-2B) is 15 nM.

For `Cn1cc(NC(=O)c2cnn3cccnc23)c(-c2cc3c(cc2OC(F)F)NCCS3)n1` [Example 88, N-[3-[6-(difluoromethoxy)-3,4-dihydro-2H-1,4-benzothiazin-7-yl]-1-methyl-pyrazol-4-yl]pyrazolo[1,5-a]pyrimidine-3-carboxamide], the inhibition constant Ki worked out at 0.08 nM in assay [1] and 0.1 nM in assay [3] (read-out: JAK2 Ki). Moreover, the IC50 in assay [2] (Homo sapiens, BEAS-2B) was 5 nM.

`Cn1cc(NC(=O)c2cnn3cccnc23)c(-c2cc3c(cc2OC(F)F)NCCO3)n1` [Example 89, N-[3-[6-(difluoromethoxy)-3,4-dihydro-2H-1,4-benzoxazin-7-yl]-1-methyl-pyrazol-4-yl]pyrazolo[1,5-a]pyrimidine-3-carboxamide]: the Ki in assay [1] was 0.12 nM; in assay [3] (read-out: JAK2 Ki), 0.1 nM. Further, the IC50 in assay [2] (Homo sapiens, BEAS-2B) stood at 7 nM.

For the molecule `Cn1cc(NC(=O)c2cnn3cccnc23)c(-c2cc3c(cc2OC(F)F)NC(=O)CS3)n1` [Example 90, N-[3-[6-(difluoromethoxy)-3-oxo-4H-1,4-benzothiazin-7-yl]-1-methyl-pyrazol-4-yl]pyrazolo[1,5-a]pyrimidine-3-carboxamide], the Ki in assay [1] and in assay [3] (read-out: JAK2 Ki) was 0.07 nM throughout. The IC50 in assay [2] (Homo sapiens, BEAS-2B) was determined as 5 nM.

As to `Cn1cc(NC(=O)c2cnn3cccnc23)c(-c2cc3sc(C(=O)N4CCNCC4)cc3cc2OC(F)F)n1` [Example 91, N-[3-[5-(difluoromethoxy)-2-(piperazine-1-carbonyl)benzothiophen-6-yl]-1-methyl-pyrazol-4-yl]pyrazolo[1,5-a]pyrimidine-3-carboxamide], the inhibitory constant (Ki) in assay [1] came to 4.03 nM; in assay [3] (read-out: JAK2 Ki), 1.85 nM. For the same molecule, in assay [2] (Homo sapiens, BEAS-2B), the IC50 amounted to 308 nM.

As to `COC(=O)Cn1cc(NC(=O)c2cnn3cccnc23)c(-c2cc3sc(C(N)=O)cc3cc2OC(F)F)n1` [Example 92, methyl 2-[3-[2-carbamoyl-5-(difluoromethoxy)benzothiophen-6-yl]-4-(pyrazolo[1,5-a]pyrimidine-3-carbonylamino)pyrazol-1-yl]acetate], the inhibition constant Ki in assay [1] turned out to be 0.22 nM; in assay [3] (read-out: JAK2 Ki), 0.2 nM. Besides, in assay [2] (Homo sapiens, BEAS-2B), the IC50 is 92 nM.

For `CC1CNc2cc(OC(F)F)c(-c3n[nH]cc3NC(=O)c3cnn4cccnc34)cc2S1` (stereo not drawn) [Example 94, N-[3-[6-(difluoromethoxy)-2-methyl-3,4-dihydro-2H-1,4-benzothiazin-7-yl]-1H-pyrazol-4-yl]pyrazolo[1,5-a]pyrimidine-3-carboxamide], the figures for the inhibitory constant (Ki) in assay [1] and in assay [3] (read-out: JAK2 Ki) were 0.07 nM and 0.05 nM, respectively. Also, in assay [2], the IC50 was 7 nM.

With `CN(C)C(=O)Cn1cc(NC(=O)c2cnn3cccnc23)c(-c2cc3c(cc2OC(F)F)NCCS3)n1` [Example 99, N-[3-[6-(difluoromethoxy)-3,4-dihydro-2H-1,4-benzothiazin-7-yl]-1-[2-(dimethylamino)-2-oxo-ethyl]pyrazol-4-yl]pyrazolo[1,5-a]pyrimidine-3-carboxamide], the Ki in assay [1] and in assay [3] (read-out: JAK2 Ki) was 0.12 nM throughout. Besides, in assay [2] (Homo sapiens, BEAS-2B), the concentration for half-maximal inhibition (IC50) came out at 24 nM.

On to `CN(C)C(=O)Cn1cc(NC(=O)c2cnn3cccnc23)c(-c2cc3c(cc2OC(F)F)NCCO3)n1` [Example 100, N-[3-[6-(difluoromethoxy)-3,4-dihydro-2H-1,4-benzoxazin-7-yl]-1-[2-(dimethylamino)-2-oxo-ethyl]pyrazol-4-yl]pyrazolo[1,5-a]pyrimidine-3-carboxamide], for which the Ki in assay [1] came out at 0.18 nM; in assay [3] (read-out: JAK2 Ki), 0.34 nM. Also, in assay [2] (Homo sapiens, BEAS-2B), the IC50 stood at 39 nM.

Turning to `CN(C)C(=O)Cn1cc(NC(=O)c2cnn3cccnc23)c(-c2cc3c(cc2OC(F)F)CCO3)n1` [Example 109, N-[3-[5-(difluoromethoxy)-2,3-dihydrobenzofuran-6-yl]-1-[2-(dimethylamino)-2-oxo-ethyl]pyrazol-4-yl]pyrazolo[1,5-a]pyrimidine-3-carboxamide], the inhibition constant (Ki) in assay [1] is 0.22 nM; in assay [3] (read-out: JAK2 Ki), 0.42 nM. The IC50 in assay [2] (Homo sapiens, BEAS-2B) was 22 nM.

With `CC1(C)CNc2cc(OC(F)F)c(-c3n[nH]cc3NC(=O)c3cnn4cccnc34)cc2S1` [Example 110, N-[3-[6-(difluoromethoxy)-2,2-dimethyl-3,4-dihydro-1,4-benzothiazin-7-yl]-1H-pyrazol-4-yl]pyrazolo[1,5-a]pyrimidine-3-carboxamide], the figures for the inhibition constant (Ki) in assay [1] and in assay [3] (read-out: JAK2 Ki) were 0.08 nM and 0.05 nM, respectively. In addition, the IC50 in assay [2] (Homo sapiens, BEAS-2B) amounted to 10 nM.

For `CC1(C)COc2cc(OC(F)F)c(-c3n[nH]cc3NC(=O)c3cnn4cccnc34)cc2C1=O` [Example 115, N-[3-[7-(difluoromethoxy)-3,3-dimethyl-4-oxo-chroman-6-yl]-1H-pyrazol-4-yl]pyrazolo[1,5-a]pyrimidine-3-carboxamide], the results for the inhibitory constant (Ki) in assay [1] and in assay [3] (read-out: JAK2 Ki) were 0.91 nM and 0.36 nM, respectively. In assay [2] (Homo sapiens, BEAS-2B), the concentration for half-maximal inhibition (IC50) was 55 nM.

Turning to `CNC(=O)Cn1cc(NC(=O)c2cnn3cccnc23)c(-c2cc3c(cc2OC(F)F)NCCO3)n1` [Example 116, N-[3-[6-(difluoromethoxy)-3,4-dihydro-2H-1,4-benzoxazin-7-yl]-1-[2-(methylamino)-2-oxo-ethyl]pyrazol-4-yl]pyrazolo[1,5-a]pyrimidine-3-carboxamide], the figures for the inhibition constant Ki in assay [1] and in assay [3] (read-out: JAK2 Ki) were 0.25 nM and 0.4 nM, respectively. For the same molecule, the IC50 in assay [2] (Homo sapiens, BEAS-2B) came out at 42 nM.

For `CNC(=O)Cn1cc(NC(=O)c2cnn3cccnc23)c(-c2cc3c(cc2OC(F)F)NCCS3)n1` [Example 117, N-[3-[6-(difluoromethoxy)-3,4-dihydro-2H-1,4-benzothiazin-7-yl]-1-[2-(methylamino)-2-oxo-ethyl]pyrazol-4-yl]pyrazolo[1,5-a]pyrimidine-3-carboxamide], the Ki in assay [1] and in assay [3] (read-out: JAK2 Ki) was 0.1 nM throughout. Further, the 50% inhibitory concentration (IC50) in assay [2] (Homo sapiens, BEAS-2B) was found to be 24 nM.

Take `C[C@@H]1CNc2cc(OC(F)F)c(-c3n[nH]cc3NC(=O)c3cnn4cccnc34)cc2O1` [Example 118, N-[3-[(2R)-6-(difluoromethoxy)-2-methyl-3,4-dihydro-2H-1,4-benzoxazin-7-yl]-1H-pyrazol-4-yl]pyrazolo[1,5-a]pyrimidine-3-carboxamide]: the Ki amounted to 0.68 nM in assay [1] and 0.23 nM in assay [3] (read-out: JAK2 Ki). The half-maximal inhibitory concentration (IC50) in assay [2] (Homo sapiens, BEAS-2B) was determined as 37 nM.

As to `CNC(=O)Cn1cc(NC(=O)c2cnn3cccnc23)c(-c2cc3c(cc2OC(F)F)SCCO3)n1` [Example 119, N-[3-[6-(difluoromethoxy)-2,3-dihydro-1,4-benzoxathiin-7-yl]-1-[2-(methylamino)-2-oxo-ethyl]pyrazol-4-yl]pyrazolo[1,5-a]pyrimidine-3-carboxamide], the Ki in assay [1] came to 1.01 nM; in assay [3] (read-out: JAK2 Ki) it was 1.93 nM. Further, the 50% inhibitory concentration (IC50) in assay [2] (Homo sapiens, BEAS-2B) was 40 nM.

As for `CN(C)C(=O)Cn1cc(NC(=O)c2cnn3cccnc23)c(-c2cc3c(cc2OC(F)F)SCCO3)n1` [Example 120, N-[3-[6-(difluoromethoxy)-2,3-dihydro-1,4-benzoxathiin-7-yl]-1-[2-(dimethylamino)-2-oxo-ethyl]pyrazol-4-yl]pyrazolo[1,5-a]pyrimidine-3-carboxamide], the inhibition constant (Ki) in assay [1] was found to be 0.63 nM; in assay [3] (read-out: JAK2 Ki), 2.54 nM. Also, in assay [2] (Homo sapiens, BEAS-2B), the IC50 came out at 46 nM.

Regarding `CC[C@@H](O)Cn1cc(NC(=O)c2cnn3cccnc23)c(-c2cc3c(cc2OC(F)F)NCCO3)n1` [Example 121, N-[3-[6-(difluoromethoxy)-3,4-dihydro-2H-1,4-benzoxazin-7-yl]-1-[(2R)-2-hydroxybutyl]pyrazol-4-yl]pyrazolo[1,5-a]pyrimidine-3-carboxamide], the Ki came to 0.41 nM in assay [1] and 0.45 nM in assay [3]. Moreover, the 50% inhibitory concentration (IC50) in assay [2] (Homo sapiens, BEAS-2B) was 38 nM.

Turning to `CC[C@H](O)Cn1cc(NC(=O)c2cnn3cccnc23)c(-c2cc3c(cc2OC(F)F)NCCO3)n1` [Example 122, N-[3-[6-(difluoromethoxy)-3,4-dihydro-2H-1,4-benzoxazin-7-yl]-1-[(2S)-2-hydroxybutyl]pyrazol-4-yl]pyrazolo[1,5-a]pyrimidine-3-carboxamide], the inhibition constant (Ki) in assay [1] amounted to 0.28 nM; in assay [3], 0.25 nM. Besides, the IC50 in assay [2] (Homo sapiens, BEAS-2B) is 32 nM.

Take `O=C(Nc1cn(Cc2ncco2)nc1-c1cc2c(cc1OC(F)F)NCCO2)c1cnn2cccnc12` [Example 123, N-[3-[6-(difluoromethoxy)-3,4-dihydro-2H-1,4-benzoxazin-7-yl]-1-(oxazol-2-ylmethyl)pyrazol-4-yl]pyrazolo[1,5-a]pyrimidine-3-carboxamide]: the Ki amounted to 0.36 nM in assay [1] and 0.28 nM in assay [3] (read-out: JAK2 Ki). Besides, the 50% inhibitory concentration (IC50) in assay [2] (Homo sapiens, BEAS-2B) came to 24 nM.
